In US11001564B2, “Substituted chromane-8-carboxamide compounds and analogues thereof, and methods using same” (priority 2016, dated 2021):
Counter-ions that a name gives are not always drawn. Like-named read-outs stand apart in the source and are kept apart here.

Test system: HBV rcDNA in HepDE19 cells
Experiment: HepDE19 assay with bDNA quantitation of HBV rcDNA
Format: cell-based, hepatitis B virus (HBV)
Conditions: Hepatitis B virus, HepDE19, 168 h
Description: HepDE19 Assay with bDNA Quantitation of HBV rcDNA:
HepDE19 cell culture system is a HepG2 (human hepatocarcinoma) derived cell line that supports HBV DNA replication and cccDNA formation in a tetracycline (Tet)-regulated manner and produces HBV rcDNA and a detectable reporter molecule dependent on the production and maintenance of cccDNA (Guo, et al., 2007, J. Virol. 81:12472-12484).
HepDE19 (50,000 cells/well) were plated in 96 well collagen-coated tissue-culture treated microtiter plates in DMEM/F12 medium supplemented with 10% fetal bovine serum, 1% penicillin-streptomycin and 1 μg/mL tetracycline and incubated in a humidified incubator at 37° C. and 5% CO2 overnight. Next day, the cells were switched to fresh medium without tetracycline and incubated for 4 hours at 37° C. and 5% CO2. The cells were treated with fresh Tet-free medium with compounds at concentrations starting at 25 μM and a serial, ½ log, 8-point, titration series in duplicate. The final DMSO concentration in the assay was 0.5%. The plates were incubated for 7 days in a humidified incubator at 37° C. and 5% CO2. Following a 7 day-incubation, the level of rcDNA present in the inhibitor-treated wells was measured using a Quantigene 2.0 bDNA assay kit (Affymetrix, Santa Clara, Calif.) with HBV specific custom probe set and manufacturers instructions. Concurrently, the effect of compounds on cell viability was assessed using replicate plates, plated at a density of 5,000 cells/well and incubated for 4 days, to determine the ATP content as a measure of cell viability using the cell-titer glo reagent (CTG; Promega Corporation, Madison, Wis.) as per manufacturer's instructions. The plates were read using a Victor luminescence plate reader (PerkinElmer Model 1420 Multilabel counter) and the relative luminescence units (RLU) data generated from each well was calculated as % inhibition of the untreated control wells and analyzed using XL-Fit module in Microsoft Excel to determine EC50 and EC90 (bDNA) and CC50 (CTG) values using a 4-parameter curve fitting algorithm.
Representative compounds of the invention were tested for their ability to inhibit formation of relaxed circular DNA (rcDNA) in a HepDE19 assay, as described elsewhere herein.

[1] = read-out: DE-19 bDNA EC50, HepDE19 cells, 7 day incubation, rcDNA by Quantigene 2.0 bDNA assay
[2] = HepDE19 cells, 7 day incubation, rcDNA by Quantigene 2.0 bDNA assay, read-out: DE-19 bDNA EC50

| Compound | EC50 [1] | EC50 [2] |
| --- | --- | --- |
| CNC(=O)N[C@H]1CCOc2c(C(=O)Nc3ccc(F)c(F)c3)cccc21 [Compound 13, (S)—N-(3,4-difluorophenyl)-4-(3-methylureido) chromane-8-carboxamide] | 2.3 µM | – |
| CC[C@@H](C)OC1CCOc2c(C(=O)Nc3ccc(F)c(F)c3)cccc21 (stereo partly drawn) [Compound 14, 4-((R)-sec-butoxy)-N-(3,4-difluorophenyl)chromane-8-carboxamide] | – | 6 µM |
| O=C(N[C@H]1CCOc2c(C(=O)Nc3ccc(F)c(F)c3)cccc21)c1ccncc1 [Compound 16] | – | 13 µM |
| CCOC(=O)N[C@H]1CCOc2c(C(=O)Nc3ccc(F)c(F)c3)cccc21 [Compound 18, Ethyl (8-((3,4-difluorophenyl)carbamoyl)chroman-4-yl)carbamate] | 6.6 µM | – |
| COCCCOC(=O)N[C@H]1CCOc2c(C(=O)Nc3ccc(F)c(F)c3)cccc21 [Compound 19, 3-Methoxypropyl (8-((3,4-difluorophenyl)carbamoyl)chroman-4-yl) carbamate] | – | 6 µM |
| CC(C)OC(=O)N[C@H]1CCOc2c(C(=O)Nc3ccc(F)c(F)c3)cccc21 [Compound 20, Isopropyl (8-((3,4-difluorophenyl)carbamoyl)chroman-4-yl)carbamate] | 14 µM | – |
| CCCOC(=O)N[C@H]1CCOc2c(C(=O)Nc3ccc(F)c(F)c3)cccc21 [Compound 21, Propyl (8-((3,4-difluorophenyl)carbamoyl)chroman-4-yl)carbamate] | 22 µM | – |
| COCCOC(=O)N[C@H]1CCOc2c(C(=O)Nc3ccc(F)c(F)c3)cccc21 [Compound 22, 2-Methoxyethyl (8-((3,4-difluorophenyl)carbamoyl)chroman-4-yl) carbamate] | 4.7 µM | – |
| O=C(N[C@H]1CCOc2c(C(=O)Nc3ccc(F)c(F)c3)cccc21)OCc1cccnc1 [Compound 23] | 3 µM | – |
| O=C(Nc1ccc(F)c(F)c1)c1cccc2c1OCC[C@H]2NC(=O)N1CCCC1 [Compound 24, (R)-N-(8-((3,4-difluorophenyl)carbamoyl)chroman-4-yl)pyrrolidine-1-carboxamide] | – | 24 µM |
| O=C(N[C@H]1CCOc2c(C(=O)Nc3ccc(F)c(F)c3)cccc21)OCc1ccccn1 [Compound 27, Pyridin-2-ylmethyl-(8-((3,4-difluorophenyl)carbamoyl)chroman-4-yl)carbamate] | – | 2.5 µM |
| O=C(N[C@@H]1CCOc2c(C(=O)Nc3ccc(F)c(F)c3)cccc21)OCc1ccccn1 [Compound 28, pyridin-2-ylmethyl (R)-(8-((3,4-difluorophenyl)carbamoyl)chroman-4-yl)carbamate] | – | 15 µM |
| O=C(N[C@H]1CCOc2c(C(=O)Nc3ccc(F)c(F)c3)cccc21)OCc1ccncc1 [Compound 29, Pyridin-4-ylmethyl-(8-((3,4-difluorophenyl)carbamoyl)chroman-4-yl)carbamate] | – | 2.2 µM |
| O=C(N[C@@H]1CCOc2c(C(=O)Nc3ccc(F)c(F)c3)cccc21)OCc1ccncc1 [Compound 30, pyridin-4-ylmethyl (R)-(8-((3,4-difluorophenyl)carbamoyl)chroman-4-yl)carbamate] | – | 11 µM |
| COC(=O)N[C@H]1CCOc2c(C(=O)NCc3ccc(F)cc3)cccc21 [Compound 31, Methyl (S)-(8-((4-fluorobenzyl)carbamoyl)chroman-4-yl)carbamate] | – | 17 µM |
| COC(=O)N[C@H]1CCOc2c(C(=O)Nc3ccc(F)c(Cl)c3)cccc21 [Compound 32, Methyl (S)-(8-((3-chloro-4-fluorophenyl)carbamoyl)chroman-4-yl)carbamate] | – | 0.85 µM |
| COC(=O)N[C@H]1CCOc2c(C(=O)Nc3ccc(F)cc3)cccc21 [Compound 33, Methyl (S)-(8-((4-fluorophenyl)carbamoyl)chroman-4-yl)carbamate] | – | 3.5 µM |
| NC(=O)NC1CCOc2c(C(=O)Nc3ccc(F)c(F)c3)cccc21 (centres unmarked) [Compound 34, N-(3,4-Difluorophenyl)-4-ureidochromane-8-carboxamide] | – | 4.7 µM |
| COC(=O)N[C@H]1CCOc2c(C(=O)Nc3ccccc3)cccc21 [Compound 35, Methyl (S)-(8-(phenylcarbamoyl)chroman-4-yl)carbamate] | – | 7.5 µM |

| Compound | EC50 [1] | EC50 [2] |
| --- | --- | --- |
| COC(=O)N[C@H]1CCOc2c(C(=O)NCc3cccc(F)c3)cccc21 [Compound 36, methyl (S)-(8-((3-fluorobenzyl)carbamoyl)chroman-4-yl)carbamate] | – | 22 µM |
| COC(=O)N[C@H]1CCOc2c(C(=O)Nc3cccc(Cl)c3)cccc21 [Compound 37, Methyl (S)-(8-((3-chlorophenyl)carbamoyl)chroman-4-yl)carbamate] | – | 2.8 µM |
| COC(=O)N[C@H]1CCOc2c(C(=O)Nc3ccc(F)c(F)c3)ccc(F)c21 [Compound 38, methyl (S)-(8-((3,4-difluorophenyl)carbamoyl)-5-fluorochroman-4-yl)carbamate] | 0.57 µM | – |
| COC(=O)N[C@@H]1CCOc2c(C(=O)Nc3ccc(F)c(F)c3)ccc(F)c21 [Compound 39, methyl (R)-(8-((3,4-difluorophenyl)carbamoyl)-5-fluorochroman-4-yl)carbamate] | – | 8.5 µM |
| CNC(=O)N[C@H]1CCOc2c(C(=O)Nc3ccc(F)c(F)c3)ccc(F)c21 [Compound 40, (S)—N-(3,4-difluorophenyl)-5-fluoro-4-(3-methylureido)chromane-8-carboxamide] | 0.67 µM | – |
| CNC(=O)N[C@@H]1CCOc2c(C(=O)Nc3ccc(F)c(F)c3)ccc(F)c21 [Compound 41, (R)-N-(3,4-difluorophenyl)-5-fluoro-4-(3-methylureido) chromane-8-carboxamide] | – | 23 µM |
| O=C(Nc1ccc(F)c(F)c1)c1cccc2c1OCC[C@@H]2Nc1ncccn1 [Compound 42, (S)-N-(3,4-difluorophenyl)-4-(pyrimidin-2-ylamino) chromane-8-carboxamide] | – | 3.4 µM |
| COC(=O)N[C@H]1CCOc2c(C(=O)Nc3cccc(C#N)c3)cccc21 [Compound 43, Methyl (S)-(8-((3-cyanophenyl)carbamoyl)chroman-4-yl)carbamate] | – | 8.7 µM |
| COC(=O)N[C@H]1CCOc2c(C(=O)Nc3ccc(F)c(C(F)(F)F)c3)cccc21 [Compound 44, Methyl (S)-(8-((4-fluoro-3-(trifluoromethyl)phenyl)carbamoyl)chroman-4-yl)carbamate] | – | 3.5 µM |
| COC(=O)N[C@H]1CCOc2c(C(=O)Nc3cc(F)c(F)c(F)c3)cccc21 [Compound 45, Methyl (S)-(8-((3,4,5-trifluorophenyl)carbamoyl)chroman-4-yl)carbamate] | – | 1.2 µM |
| COC(=O)N[C@H]1CCOc2c(C(=O)Nc3cc(F)cc(F)c3)cccc21 [Compound 46, Methyl (S)-(8-((3,5-difluorophenyl)carbamoyl)chroman-4-yl)carbamate] | – | 5.8 µM |
| COC(=O)N[C@H]1CCOc2c1ccc(F)c2C(=O)Nc1ccc(F)c(F)c1 [Compound 47, Methyl (8-((3,4-difluorophenyl)carbamoyl)-7-fluorochroman-4-yl)carbamate] | 3.6 µM | – |
| CNC(=O)N[C@H]1CCOc2c1ccc(F)c2C(=O)Nc1ccc(F)c(F)c1 [Compound 48, (S)-N-(3,4-difluorophenyl)-7-fluoro-4-(3-methylureido) chromane-8-carboxamide] | – | 6.7 µM |
| COC(=O)N[C@H]1CCOc2c(C(=O)Nc3cccc(C(F)(F)F)c3)cccc21 [Compound 49] | 11 µM | – |
| COC(=O)N[C@H]1CCOc2c(C(=O)Nc3ccc(F)c(C)c3)cccc21 [Compound 50, Methyl (S)-(8-((4-fluoro-3-methylphenyl)carbamoyl)chroman-4-yl)carbamate] | – | 0.65 µM |
| O=C(N[C@H]1CCOc2c(C(=O)Nc3ccc(F)c(Cl)c3)cccc21)OCc1ccccn1 [Compound 51, Pyridin-2-ylmethyl (S)-(8-((3-chloro-4-fluorophenyl)carbamoyl)chroman-4-yl)carbamate hydrochloride] | 1.2 µM | – |
| Cc1cccc(COC(=O)N[C@H]2CCOc3c(C(=O)Nc4ccc(F)c(Cl)c4)cccc32)n1 [Compound 52, (6-Methylpyridin-2-yl)methyl (S)-(8-((3-chloro-4-fluorophenyl)carbamoyl)chroman-4-yl)carbamate] | – | 1.7 µM |
| Cc1cccc(COC(=O)N[C@H]2CCOc3c(C(=O)Nc4ccc(F)c(F)c4)cccc32)n1 [Compound 53, (6-Methylpyridin-2-yl)methyl (S)-(8-((3,4-difluorophenyl)carbamoyl)chroman-4-yl)carbamate] | – | 4.4 µM |
| COc1ccnc(N[C@H]2CCOc3c(C(=O)Nc4ccc(F)c(F)c4)cccc32)n1 [Compound 54, (S)—N-(3,4-Difluorophenyl)-4-((4-methoxypyrimidin-2-yl)amino)chromane-8-carboxamide] | – | 4.1 µM |
